Type in all cases: biochemical
One assay deals with Pim1 kinase (Homo sapiens, UniProt P11309). Description: Pim1 ATP depletion assay.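 Also: Luciferase-luciferin luminescence readout of residual ATP after PIM1 transfers phosphate to a peptide substrate, 40 µM ATP added, reaction run to roughly half ATP consumption.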 To be noted: Pim1 ATP depletion assay; read-out: PIM1 IC50.
The next assay has as its target Pim2 kinase (Homo sapiens, UniProt Q9P1W9). Nature of the assay: Pim2 ATP depletion assay.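 Also: Luciferase-based luminescent readout of ATP remaining after PIM2 phosphorylates a BAD peptide, final 5 nM enzyme, 4 µM ATP, 10 µM peptide, 2.5% DMSO, run to roughly half ATP consumption.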 To be noted: read-out: PIM2 IC50.
A further assay has as its target Pim3 kinase (Homo sapiens, UniProt Q86V86). Nature of the assay: Pim3 ATP depletion assay. To be noted: read-out: PIM3 IC50.

Some results are limits rather than exact numbers.

Sequence of Pim1 kinase (P11309 whole entry): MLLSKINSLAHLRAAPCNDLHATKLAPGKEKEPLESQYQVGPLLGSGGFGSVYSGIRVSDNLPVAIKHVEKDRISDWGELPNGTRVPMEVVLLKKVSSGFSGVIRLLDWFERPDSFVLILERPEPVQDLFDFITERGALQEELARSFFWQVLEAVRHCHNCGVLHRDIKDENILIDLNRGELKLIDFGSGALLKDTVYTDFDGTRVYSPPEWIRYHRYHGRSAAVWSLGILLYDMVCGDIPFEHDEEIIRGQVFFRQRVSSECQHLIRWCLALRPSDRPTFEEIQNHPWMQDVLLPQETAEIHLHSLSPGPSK
Sequence of Pim2 kinase (Q9P1W9 whole entry): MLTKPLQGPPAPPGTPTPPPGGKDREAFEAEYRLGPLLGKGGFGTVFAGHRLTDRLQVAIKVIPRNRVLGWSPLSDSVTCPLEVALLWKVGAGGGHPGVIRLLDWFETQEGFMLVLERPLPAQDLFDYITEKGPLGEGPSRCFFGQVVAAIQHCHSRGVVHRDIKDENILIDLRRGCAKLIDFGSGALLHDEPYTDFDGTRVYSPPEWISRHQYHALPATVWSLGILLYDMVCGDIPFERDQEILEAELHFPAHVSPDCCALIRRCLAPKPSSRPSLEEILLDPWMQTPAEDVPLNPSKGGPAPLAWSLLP

As for `CC(C)NC(=O)c1ccc(F)c(-c2cccc(C(=O)Nc3cnccc3-c3cc(N)nc(C(F)(F)F)n3)n2)c1` [Example 553, 6-(2-Fluoro-5-isopropylcarbamoyl-phenyl)-pyridine-2-carboxylic acid [4-(6 amino-2-trifluoromethyl-pyrimidin-4-yl)-pyridin-3-yl]-amide], the half-inhibitory concentration (IC50) at Pim1 kinase, at Pim2 kinase and at Pim3 kinase was less than 1 µM throughout.
Turning to `CC(C)NC(=O)c1ccc(F)c(-c2ccc(N)c(C(=O)Nc3cnccc3-c3cc(N)nc(C(F)(F)F)n3)n2)c1` [Example 554, 3-Amino-6-(2-fluoro-5-isopropylcarbamoyl-phenyl)-pyridine-2-carboxylic acid [4-(6-amino-2-trifluoromethyl-pyrimidin-4-yl)-pyridin-3-yl]-amide], the IC50 on Pim1 kinase, on Pim2 kinase and at Pim3 kinase was less than 1 µM throughout.
`CCc1cccc(-c2ccc(N)c(C(=O)Nc3cnccc3-c3cc(N)nc(C)n3)n2)c1` [Example 555, 3-Amino-6-(3-ethyl-phenyl)-pyridine-2-carboxylic acid [4-(6-amino-2-methyl-pyrimidin-4-yl)-pyridin-3-yl]-amide]: the IC50 at Pim1 kinase, at Pim2 kinase and at Pim3 kinase was less than 1 µM each time.
With `Cc1csc(-c2ccc(N)c(C(=O)Nc3cnccc3-c3cc(N)nc(C)n3)n2)c1` [Example 556, 3-Amino-6-(4-methyl-thiophen-2-yl)-pyridine-2-carboxylic acid [4-(6-amino-2-methyl-pyrimidin-4-yl)-pyridin-3-yl]-amide], the IC50 at Pim1 kinase, on Pim2 kinase and at Pim3 kinase was less than 1 µM in each case.
Take `Cc1nc(N)cc(-c2ccncc2NC(=O)c2nc(-c3ccc(C(F)(F)F)cc3F)ccc2N)n1` [Example 557, 3-Amino-6-(2-fluoro-4-trifluoromethyl-phenyl)-pyridine-2-carboxylic acid [4-(6-amino-2-methyl-pyrimidin-4-yl)-pyridin-3-yl]-amide]: the 50% inhibitory concentration (IC50) at Pim1 kinase, at Pim2 kinase and at Pim3 kinase was less than 1 µM throughout.
Regarding `Cc1ccc(-c2ccc(N)c(C(=O)Nc3cnccc3-c3cc(N)nc(C)n3)n2)c(F)c1` [Example 558, 3-Amino-6-(2-fluoro-4-methyl-phenyl)-pyridine-2-carboxylic acid [4-(6-amino-2-methyl-pyrimidin-4-yl)-pyridin-3-yl]-amide], the IC50 on Pim1 kinase, on Pim2 kinase and at Pim3 kinase was less than 1 µM throughout.
Regarding `Cc1nc(N)cc(-c2ccncc2NC(=O)c2nc(-c3ccccc3)ccc2N)n1` [Example 559, 3-Amino-6-phenyl-pyridine-2-carboxylic acid [4-(6-amino-2-methyl-pyrimidin-4-yl)-pyridin-3-yl]-amide], the IC50 at Pim1 kinase, on Pim2 kinase and at Pim3 kinase was less than 1 µM each time.
With `Cc1cc(-c2ccncc2NC(=O)c2nc(-c3cc(C(=O)NC(C)C)ccc3F)c(F)cc2N)nc(N)n1` [Example 560, 3-Amino-5-fluoro-6-(2-fluoro-5-isopropylcarbamoyl-phenyl)-pyridine-2-carboxylic acid [4-(2-amino-6-methyl-pyrimidin-4-yl)-pyridin-3-yl]-amide], the IC50 at Pim1 kinase, on Pim2 kinase and at Pim3 kinase was less than 1 µM in each case.
Take `Cc1nc(N)cc(-c2ccncc2NC(=O)c2nc(-c3cc(C(=O)N(C)C)ccc3F)c(F)cc2N)n1` [Example 561, 3-Amino-6-(5-dimethylcarbamoyl-2-fluoro-phenyl)-5-fluoro-pyridine-2-carboxylic acid [4-(6-amino-2-methyl-pyrimidin-4-yl)-pyridin-3-yl]-amide]: the half-maximal inhibitory concentration (IC50) at Pim1 kinase, on Pim2 kinase and on Pim3 kinase was less than 1 µM each time.
For the compound `CCCOc1ccc(F)c(-c2ccc(N)c(C(=O)Nc3cnccc3-c3cc(C)nc(N)n3)n2)c1F` [Example 562, 3-Amino-6-(2,6-difluoro-3-propoxy-phenyl)-pyridine-2-carboxylic acid [4-(2-amino-6-methyl-pyrimidin-4-yl)-pyridin-3-yl]-amide], the IC50 on Pim1 kinase, at Pim2 kinase and at Pim3 kinase was less than 1 µM in each case.
In the case of `Cc1cc(-c2ccncc2NC(=O)c2nc(-c3cc(C(=O)NC(C)C)ccc3F)ccc2N)nc(N)n1` [Example 563, 3-Amino-6-(2-fluoro-5-isopropylcarbamoyl-phenyl)-pyridine-2-carboxylic acid [4-(2-amino-6-methyl-pyrimidin-4-yl)-pyridin-3-yl]-amide], the IC50 at Pim1 kinase, at Pim2 kinase and at Pim3 kinase was less than 1 µM in each case.
On to `Cc1cc(-c2ccncc2NC(=O)c2nc(-c3cc(C(=O)N(C)C)ccc3F)ccc2N)nc(N)n1` [Example 564, 3-Amino-6-(5-dimethylcarbamoyl-2-fluoro-phenyl)-pyridine-2-carboxylic acid [4-(2-amino-6-methyl-pyrimidin-4-yl)-pyridin-3-yl]-amide], for which the half-maximal inhibitory concentration (IC50) at Pim1 kinase, on Pim2 kinase and at Pim3 kinase was less than 1 µM each time.
For the compound `CCCNC(=O)c1ccc(F)c(-c2ccc(N)c(C(=O)Nc3cnccc3-c3cc(N)nc(C)n3)n2)c1` [Example 565, 3-Amino-6-(2-fluoro-5-propylcarbamoyl-phenyl)-pyridine-2-carboxylic acid [4-(6-amino-2-methyl-pyrimidin-4-yl)-pyridin-3-yl]-amide], the IC50 on Pim1 kinase, on Pim2 kinase and on Pim3 kinase was less than 1 µM in each case.
`Nc1ccc(-c2cccc(CN3CCOCC3)c2)nc1C(=O)Nc1cnccc1N1CCC[C@H](N)C1` [Example 566, 3-Amino-6-(3-morpholin-4-ylmethyl-phenyl)-pyridine-2-carboxylic acid (3-amino-3,4,5,6-tetrahydro-2H-[1,4′]bipyridinyl-3′-yl)-amide]: the IC50 at Pim1 kinase, on Pim2 kinase and at Pim3 kinase was less than 1 µM in each case.
With `Nc1ccc(-c2ccc(CN3CCOCC3)cc2)nc1C(=O)Nc1cnccc1N1CCC[C@H](N)C1` [Example 567, 3-Amino-6-(4-morpholin-4-ylmethyl-phenyl)-pyridine-2-carboxylic acid (3-amino-3,4,5,6-tetrahydro-2H-[1,4′]bipyridinyl-3′-yl)-amide], the IC50 at Pim1 kinase, at Pim2 kinase and at Pim3 kinase was less than 1 µM in each case.
Turning to `N[C@H]1CCCN(c2ccncc2NC(=O)c2nc(-c3ccccc3)ccc2F)C1` [Example 568, 3-Fluoro-6-phenyl-pyridine-2-carboxylic acid (3-amino-3,4,5,6-tetrahydro-2H-[1,4′]bipyridinyl-3′-yl)-amide], the IC50 on Pim1 kinase, at Pim2 kinase and on Pim3 kinase was less than 1 µM each time.
On to `CC(C)NC(=O)c1ccc(F)c(-c2ccc(F)c(C(=O)Nc3cnccc3N3CCC[C@H](N)C3)n2)c1` [Example 569, 3-Fluoro-6-(2-fluoro-5-isopropylcarbamoyl-phenyl)-pyridine-2-carboxylic acid (3-amino-3,4,5,6-tetrahydro-2H-[1,4′]bipyridinyl-3′-yl)-amide], for which the IC50 on Pim1 kinase, at Pim2 kinase and on Pim3 kinase was less than 1 µM each time.
`N[C@H]1CCCN(c2ccncc2NC(=O)c2nc(-c3ccccc3F)ccc2F)C1` [Example 571, 3-Fluoro-6-(2-fluoro-phenyl)-pyridine-2-carboxylic acid (3-amino-3,4,5,6-tetrahydro-2H-[1,4′]bipyridinyl-3′-yl)-amide]: the IC50 at Pim1 kinase, on Pim2 kinase and at Pim3 kinase was less than 1 µM throughout.
For the compound `Nc1cc(-c2ccncc2NC(=O)c2nc(-c3ccc(CN4CCOCC4)cc3)ccc2N)nc(C(F)(F)F)n1` [Example 572, 3-Amino-6-(4-morpholin-4-ylmethyl-phenyl)-pyridine-2-carboxylic acid [4-(6-amino-2-trifluoromethyl-pyrimidin-4-yl)-pyridin-3-yl]-amide], the IC50 at Pim1 kinase, on Pim2 kinase and at Pim3 kinase was less than 1 µM in each case.
With `CN1CCN(c2cc(-c3ccc(N)c(C(=O)Nc4cnccc4-c4cc(N)nc(C(F)(F)F)n4)n3)ccn2)CC1` [Example 573, 5-Amino-2′-(4-methyl-piperazin-1-yl)-[2,4′]bipyridinyl-6-carboxylic acid [4-(6-amino-2-trifluoromethyl-pyrimidin-4-yl)-pyridin-3-yl]-amide], the IC50 on Pim1 kinase, on Pim2 kinase and on Pim3 kinase was less than 1 µM throughout.
As for `CN1CCN(c2ccc(-c3ccc(N)c(C(=O)Nc4cnccc4-c4cc(N)nc(C(F)(F)F)n4)n3)cc2)CC1` [Example 574, 3-Amino-6-[4-(4-methyl-piperazin-1-yl)-phenyl]-pyridine-2-carboxylic acid [4-(6-amino-2-trifluoromethyl-pyrimidin-4-yl)-pyridin-3-yl]-amide], the IC50 at Pim1 kinase, on Pim2 kinase and at Pim3 kinase was less than 1 µM in each case.
Consider `NC1CC(CO)CN(c2ccncc2NC(=O)c2nc(-c3c(F)cccc3F)ccc2F)C1` (stereo not drawn) [Example 575, 6-(2,6-Difluoro-phenyl)-3-fluoro-pyridine-2-carboxylic acid (5-amino-3-hydroxymethyl-3,4,5,6-tetrahydro-2H-[1,4′]bipyridinyl-3′-yl)-amide], for which the IC50 on Pim1 kinase was less than 1 µM; on Pim2 kinase, less than 1 µM; at Pim3 kinase, 1 to 10 µM.
Turning to `Nc1ccc(-c2c(F)cccc2F)nc1C(=O)Nc1cnccc1N1CC(N)CC(CO)C1` (stereo not drawn) [Example 576, 3-Amino-6-(2,6-difluoro-phenyl)-pyridine-2-carboxylic acid (5-amino-3-hydroxymethyl-3,4,5,6-tetrahydro-2H-[1,4′]bipyridinyl-3′-yl)-amide], the IC50 at Pim1 kinase, on Pim2 kinase and on Pim3 kinase was less than 1 µM each time.

What is called IC50 is the concentration at which inhibition is half-maximal.

The record behind these values is US20140249135A1, “PIM KINASE INHIBITORS AND METHODS OF THEIR USE” (NOVARTIS AG, priority 2007, published 2014).
